What all share (type): toxicity, cell-based
In data set [1] the test system is Fibroblast. In words: Incucyte cell viability with human fibroblast. The note with it: 10 µM, compound concentration 10 uM.
Data set [2] concerns HEK-293T. In words: Incucyte cell viability with HEK293T. The note with it: human, 10 µM, compound concentration 10 uM.
Data set [3] deals with U2OS. In words: Incucyte cell viability with U2OS. The note with it: human, 10 µM, compound concentration 10 uM.
Also: unitless GR value; below 1 slowed growth and below 0 cell loss.

As to `CC1(C)OC(=O)c2ccc(Nc3ncc(-c4nnco4)c(N[C@H](CO)c4ccccc4)n3)cc21`, the “Growth Rate” value in data set [1] (0 h, replicate number 2) is recorded as -0.49; in data set [1] (6 h, replicate number 1), -1; in data set [2] (0 h, replicate number 1), 0.28; in data set [2] (0 h, replicate number 2) it was -0.28; in data set [2] (12 h, replicate number 1), 0.23; in data set [2] (12 h, replicate number 2), -0.01. In addition, the “Growth Rate” value in data set [2] (18 h, replicate number 1) is 0.12; in data set [2] (18 h, replicate number 2), -0.01; in data set [2] (24 h, replicate number 1), 0.09; in data set [2] (24 h, replicate number 2) it was -0.02; in data set [3] (0 h, replicate number 2), -0.4; in data set [3] (12 h, replicate number 1) it was 0.78. Further, the “Growth Rate” value was found to be 0.44 in data set [3] (18 h, replicate number 1); 0.69 in data set [3] (18 h, replicate number 2); 0.47 in data set [3] (24 h, replicate number 1); 0.62 in data set [3] (24 h, replicate number 2).

For the compound `Cc1ccc(NC(=O)c2ccc3cnccc3c2)cc1C(=O)Nc1cnc(Nc2cccc(NC3CCN(C(=O)/C=C/CN(C)C)CC3)c2)nc1`, the “Growth Rate” value is reported as 0.35 in data set [1] (0 h, replicate number 1); -0.14 in data set [1] (0 h, replicate number 2); -1 in data set [1] (6 h, replicate number 2); -0.99 in data set [1] (12 h, replicate number 1); -0.71 in data set [1] (12 h, replicate number 2); -0.78 in data set [1] (18 h, replicate number 1). Besides, the “Growth Rate” value is given as -0.42 in data set [1] (18 h, replicate number 2); -0.28 in data set [1] (24 h, replicate number 1); -0.3 in data set [1] (24 h, replicate number 2); -0.97 in data set [2] (6 h, replicate number 1); -0.98 in data set [2] (6 h, replicate number 2); -0.87 in data set [2] (12 h, replicate number 1). Besides, the “Growth Rate” value in data set [2] (12 h, replicate number 2) was -0.77; in data set [2] (18 h, replicate number 1) it was -0.65; in data set [2] (18 h, replicate number 2), -0.56; in data set [2] (24 h, replicate number 1) it was -0.54; in data set [2] (24 h, replicate number 2), -0.39; in data set [3] (0 h, replicate number 2), -0.97. The “Growth Rate” value in data set [3] (6 h, replicate number 1) is on record as -0.26; in data set [3] (6 h, replicate number 2) it was 0.51; in data set [3] (12 h, replicate number 1) it was 0.17; in data set [3] (12 h, replicate number 2), 0.68; in data set [3] (18 h, replicate number 1), 0.33; in data set [3] (18 h, replicate number 2) it was 0.49. For the same compound, the “Growth Rate” value in data set [3] (24 h, replicate number 1) came to 0.27; in data set [3] (24 h, replicate number 2) it was 0.46.

With `CCCCC[C@@](C)(O)/C=C/[C@H]1C(=O)CC(O)C1C/C=C\CCCC(=O)O` (stereo not given in full), the “Growth Rate” value in data set [1] (6 h, replicate number 2) is reported as -0.92; in data set [1] (12 h, replicate number 1), 0.71; in data set [1] (12 h, replicate number 2), 0.2; in data set [1] (18 h, replicate number 2), 0.57; in data set [1] (24 h, replicate number 2), 0.71; in data set [2] (0 h, replicate number 1) it was -0.27. For the same compound, the “Growth Rate” value is 0.17 in data set [2] (0 h, replicate number 2); 0.96 in data set [2] (12 h, replicate number 2); 0.49 in data set [3] (6 h, replicate number 1); 0.94 in data set [3] (24 h, replicate number 1); 1 in data set [3] (24 h, replicate number 2).

Regarding `Cn1c(SCc2ccc(C(C)(C)C)cc2)nc(N)cc1=O`, the “Growth Rate” value in data set [1] (0 h, replicate number 1) is 0.97; in data set [1] (0 h, replicate number 2) it was -1; in data set [1] (6 h, replicate number 1), -0.69; in data set [2] (0 h, replicate number 1) it was 0.71; in data set [2] (6 h, replicate number 1) it was -0.1; in data set [2] (6 h, replicate number 2) it was -0.24. Further, the “Growth Rate” value in data set [2] (12 h, replicate number 1) is reported as -0.03; in data set [2] (12 h, replicate number 2) it was 0.05; in data set [2] (18 h, replicate number 1) it was 0.15; in data set [2] (18 h, replicate number 2) it was 0.19; in data set [2] (24 h, replicate number 1) it was 0.2; in data set [2] (24 h, replicate number 2), 0.23. Besides, the “Growth Rate” value in data set [3] (0 h, replicate number 2) was -0.65; in data set [3] (6 h, replicate number 1), 0.7; in data set [3] (12 h, replicate number 1), 0.86; in data set [3] (12 h, replicate number 2) it was 0.66; in data set [3] (18 h, replicate number 1) it was 0.62; in data set [3] (18 h, replicate number 2), 0.71. For the same compound, the “Growth Rate” value is on record as 0.78 in data set [3] (24 h, replicate number 1) and 0.68 in data set [3] (24 h, replicate number 2).

On to `O=C(Nc1ccc(S(=O)(=O)Nc2nccs2)cc1)C(c1ccccc1)c1ccccc1`, for which the “Growth Rate” value was -0.85 in data set [1] (0 h, replicate number 2); 0.85 in data set [1] (12 h, replicate number 2); 0.49 in data set [1] (18 h, replicate number 1); 0.71 in data set [2] (0 h, replicate number 1); 0.94 in data set [2] (6 h, replicate number 1); 0.52 in data set [2] (6 h, replicate number 2). The “Growth Rate” value in data set [2] (18 h, replicate number 2) was 0.82; in data set [2] (24 h, replicate number 1), 0.88; in data set [2] (24 h, replicate number 2) it was 0.9; in data set [3] (12 h, replicate number 1), 0.81; in data set [3] (12 h, replicate number 2), 0.82; in data set [3] (24 h, replicate number 1), 0.94.

Turning to `CN1CCN(c2ccc(-n3cc(-c4ccncc4OCC4CCNCC4)cn3)cc2)CC1`, the “Growth Rate” value stood at 0.3 in data set [1] (0 h, replicate number 1); 0.21 in data set [1] (0 h, replicate number 2); 0.93 in data set [1] (6 h, replicate number 1); 0.33 in data set [1] (6 h, replicate number 2); 0.81 in data set [1] (12 h, replicate number 1); 0.22 in data set [1] (12 h, replicate number 2). Besides, the “Growth Rate” value is 0.68 in data set [1] (18 h, replicate number 1); 0.19 in data set [1] (18 h, replicate number 2); 0.62 in data set [1] (24 h, replicate number 1); 0.28 in data set [1] (24 h, replicate number 2); -0.6 in data set [2] (0 h, replicate number 1); -0.15 in data set [2] (6 h, replicate number 1). In addition, the “Growth Rate” value is -0.17 in data set [2] (6 h, replicate number 2); 0.02 in data set [2] (12 h, replicate number 1); 0.09 in data set [2] (12 h, replicate number 2); 0.14 in data set [2] (18 h, replicate number 1); 0.13 in data set [2] (18 h, replicate number 2); 0.11 in data set [2] (24 h, replicate number 1). In addition, the “Growth Rate” value in data set [2] (24 h, replicate number 2) was found to be 0.07; in data set [3] (0 h, replicate number 2), 0.97; in data set [3] (6 h, replicate number 2) it was 0.51; in data set [3] (12 h, replicate number 1), 0.92; in data set [3] (12 h, replicate number 2), 0.4; in data set [3] (18 h, replicate number 1), 0.69. Besides, the “Growth Rate” value in data set [3] (18 h, replicate number 2) amounted to 0.31; in data set [3] (24 h, replicate number 1) it was 0.53; in data set [3] (24 h, replicate number 2), 0.16.

For `COc1ccc(NC(=O)[C@@H]2C[C@H](C)CC[C@H]2C(C)C)cc1` [ACOLTREMON], the “Growth Rate” value in data set [1] (0 h, replicate number 1) was 0.31; in data set [1] (6 h, replicate number 2), -0.34; in data set [1] (12 h, replicate number 2), 0.74; in data set [1] (18 h, replicate number 1), 0.98; in data set [1] (18 h, replicate number 2), 0.61; in data set [1] (24 h, replicate number 2), 0.67. Further, the “Growth Rate” value is 0.02 in data set [2] (0 h, replicate number 2); -0.89 in data set [3] (0 h, replicate number 2); -0.13 in data set [3] (6 h, replicate number 1); 0.93 in data set [3] (12 h, replicate number 1); 0.94 in data set [3] (24 h, replicate number 1).

Consider `Cc1nc2c(cc1F)c(-c1nnc3c(n1)NC(=O)C3(C)C)nn2Cc1cccc(F)c1F`, for which the “Growth Rate” value was -1 in data set [1] (0 h, replicate number 1); 0.67 in data set [1] (0 h, replicate number 2); 0.59 in data set [1] (6 h, replicate number 1); 0.85 in data set [1] (18 h, replicate number 1); 0.94 in data set [1] (24 h, replicate number 1); 0.61 in data set [2] (0 h, replicate number 1). Also, the “Growth Rate” value was determined as 0.48 in data set [2] (0 h, replicate number 2); 0.97 in data set [2] (6 h, replicate number 1); 0.57 in data set [2] (6 h, replicate number 2); 0.95 in data set [2] (12 h, replicate number 1); 0.74 in data set [2] (12 h, replicate number 2); 0.75 in data set [2] (18 h, replicate number 1). The “Growth Rate” value in data set [2] (18 h, replicate number 2) was 0.8; in data set [2] (24 h, replicate number 1), 0.79; in data set [2] (24 h, replicate number 2), 0.91; in data set [3] (0 h, replicate number 2) it was 0.99; in data set [3] (6 h, replicate number 1) it was 0.9; in data set [3] (6 h, replicate number 2), 0.58. Also, the “Growth Rate” value turned out to be 0.84 in data set [3] (12 h, replicate number 2) and 0.95 in data set [3] (18 h, replicate number 2).

For `O=C(Nc1ccccc1Cl)c1cnc2ccc(C3CCNCC3)cn12.O=C(O)C(=O)O`, the “Growth Rate” value in data set [1] (6 h, replicate number 2) is -1; in data set [1] (12 h, replicate number 2) it was -0.49; in data set [1] (18 h, replicate number 1) it was -0.51; in data set [1] (18 h, replicate number 2), 0.05; in data set [1] (24 h, replicate number 1), -0.36; in data set [1] (24 h, replicate number 2), 0.33. In addition, the “Growth Rate” value in data set [2] (6 h, replicate number 1) is -0.96; in data set [2] (12 h, replicate number 1), -0.83; in data set [2] (12 h, replicate number 2), -0.61; in data set [2] (18 h, replicate number 1), -0.53; in data set [2] (18 h, replicate number 2), -0.27; in data set [2] (24 h, replicate number 1), -0.28. Besides, the “Growth Rate” value in data set [2] (24 h, replicate number 2) was -0.03; in data set [3] (0 h, replicate number 2), -1; in data set [3] (6 h, replicate number 1), -0.44; in data set [3] (6 h, replicate number 2) it was 0.06; in data set [3] (12 h, replicate number 1), 0.46; in data set [3] (12 h, replicate number 2), 0.5. For the same compound, the “Growth Rate” value in data set [3] (18 h, replicate number 1) is given as 0.62; in data set [3] (18 h, replicate number 2), 0.61; in data set [3] (24 h, replicate number 1), 0.64; in data set [3] (24 h, replicate number 2) it was 0.59.

For `Cc1c(NC(=O)c2cccn(-c3ccc(F)cc3)c2=O)ccc(Oc2ccnc(NC(=O)C3CC3)c2)c1C`, the “Growth Rate” value is on record as 0.16 in data set [1] (0 h, replicate number 2); 0.52 in data set [1] (6 h, replicate number 1); 0.99 in data set [1] (6 h, replicate number 2); 0.59 in data set [2] (6 h, replicate number 1); 0.27 in data set [2] (6 h, replicate number 2); 0.78 in data set [2] (12 h, replicate number 2). The “Growth Rate” value in data set [2] (18 h, replicate number 2) is 0.94; in data set [3] (0 h, replicate number 1), -0.05; in data set [3] (0 h, replicate number 2), -0.46; in data set [3] (12 h, replicate number 1) it was 0.92; in data set [3] (18 h, replicate number 1) it was 0.85; in data set [3] (24 h, replicate number 2), 0.96.

On to `C[C@H](NC(=O)c1cc(Cl)ccc1Oc1ccc(F)cc1)c1ccc(C(=O)O)cc1`, for which the “Growth Rate” value in data set [1] (0 h, replicate number 2) is listed as -0.45; in data set [1] (6 h, replicate number 1), 0.59; in data set [1] (6 h, replicate number 2), -0.71; in data set [1] (12 h, replicate number 2), 0.98; in data set [1] (18 h, replicate number 1), 0.85; in data set [1] (18 h, replicate number 2), 0.92. Besides, the “Growth Rate” value in data set [1] (24 h, replicate number 1) is reported as 0.86; in data set [2] (0 h, replicate number 1), -0.19; in data set [2] (0 h, replicate number 2) it was 0.1; in data set [3] (6 h, replicate number 2), 0.86; in data set [3] (12 h, replicate number 1) it was 0.94; in data set [3] (12 h, replicate number 2), 0.8. Besides, in data set [3] (24 h, replicate number 2), the “Growth Rate” value was 0.99.
